Legend:
[1] = test system: a variety of test species; experiment: Post-emergence herbicidal activity (Example 8b, Table 3); assay type: in vivo; conditions: application post-emergence, rate 1000 g/ha, evaluated after 13 days, scale 0-5; for Herbicidal damage score, ABUTH: Abutilon theophrasti; for Herbicidal damage score, ALOMY: Alopecurus myosuroides; for Herbicidal damage score, AMARE: Amaranthus retroflexus; for Herbicidal damage score, ECHCG: Echinochloa crus-galli; for Herbicidal damage score, SETFA: Setaria faberi; for Herbicidal damage score, ZEAMX: Zea mays
Method in brief: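 Visual herbicidal injury (0 = no damage, 5 = plant killed) recorded 13 days post-treatment. Treatment consisted of a single spray onto emerged seedlings at day 8; conditions before and after were 24/16 °C, 14 h light, 65% humidity.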

[2] = test system: a variety of test species; experiment: Pre-emergence herbicidal activity (Example 8a, Table 2); assay type: in vivo; design: key: 0 = no damage to plant, 5 = total damage to plant; conditions: application pre-emergence, rate 1000 g/ha, evaluated after 13 days
Method in brief: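 Damage was rated 13 days after treatment on a 0–5 scale (0 = no damage, 5 = total damage). Pots of seeds in standard soil were sprayed one day after sowing with an aqueous solution from an acetone/water (50:50), 0.5% Tween 20 formulation and kept at 24/16 °C day/night.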

| SMILES | Herbicidal damage score, ABUTH [1] | Herbicidal damage score, ALOMY [1] | Herbicidal damage score, AMARE [1] | Herbicidal damage score, ECHCG [1] | Herbicidal damage score, SETFA [1] | Herbicidal damage score, ZEAMX [1] | Pre-emergence herbicidal activity, damage score ABUTH [2] | Pre-emergence herbicidal activity, damage score ALOMY [2] | Pre-emergence herbicidal activity, damage score AMARE [2] | Pre-emergence herbicidal activity, damage score ECHCG [2] | Pre-emergence herbicidal activity, damage score SETFA [2] | Pre-emergence herbicidal activity, damage score ZEAMX [2] |
| --- | --- | --- | --- | --- | --- | --- | --- | --- | --- | --- | --- | --- |
| CC1=C(Cl)C(=O)N(c2cc(C(C)(C)C)n(C)n2)C1OC(=O)OCC(C)C (stereo not drawn) [Compound F4] | 5 | 5 | 5 | 5 | 5 | 5 | 5 | 3 | 5 | 5 | 4 | 2 |
| CC1=C(Cl)C(=O)N(c2cc3n(n2)CCC3(C)C)C1O (stereo not drawn) [Compound G2] | 5 | 5 | 5 | 5 | 5 | 4 | 5 | 4 | 5 | 5 | 5 | 4 |
| CC1=C(Cl)C(=O)N(c2cc3n(n2)CCCC3(C)C)C1O (stereo not drawn) [Compound G4] | 5 | 5 | 5 | 5 | 5 | 5 | 5 | 4 | 5 | 5 | 5 | 3 |
| CC1=C(Cl)C(=O)N(c2cc3n(n2)CCC3(C)C)C1O (stereo not drawn) [Compound G8] | 5 | 5 | 5 | 5 | 5 | 4 | 5 | 4 | 5 | 5 | 5 | 4 |
| CC1=C(Cl)C(=O)N(c2cc3n(n2)CCCC3(C)C)C1O (stereo not drawn) [Compound G9] | 5 | 5 | 5 | 5 | 5 | 5 | 5 | 4 | 5 | 5 | 5 | 3 |
| CC1=C(Cl)C(=O)N(c2cc3n(n2)CCSC3(C)C)C1O (stereo not drawn) [Compound G10] | 5 | 5 | 5 | 5 | 5 | 4 | 5 | 3 | 5 | 5 | 4 | 4 |
| CC1=C(Cl)C(=O)N(c2cc3n(n2)CCS(=O)(=O)C3(C)C)C1O (stereo not drawn) [Compound G11] | 5 | 5 | 5 | 5 | 5 | 3 | 5 | 4 | 5 | 5 | 5 | 4 |
| COC1=C(C)C(O)N(c2cc(C(C)(C)C)n(C)n2)C1=O (stereo not drawn) [Compound H1, 1-(5-tert-butyl-1-methyl-pyrazol-3-yl)-2-hydroxy-4-methoxy-3-methyl-2H-pyrrol-5-one] | 5 | 5 | 5 | 5 | 5 | 4 | 5 | 4 | 5 | 5 | 5 | 4 |
| COC1=C(C)C(O)N(c2cc(C(C)(C)C)n(C)n2)C1=O (stereo not drawn) [Compound H2] |  |  |  |  |  | 4 |  | 4 |  |  |  | 4 |
| COC1=C(C)C(O)N(c2nn(C)c(C(C)(C)C)c2C#N)C1=O (stereo not drawn) [Compound H3] | 5 | 5 | 4 | 5 | 5 | 3 | 4 | 4 | 4 | 5 | 4 | 1 |
| COC1=C(C)C(O)N(c2cc(C(F)(F)F)n(C)n2)C1=O (stereo not drawn) [Compound H4] | 5 | 5 | 5 | 5 | 5 | 5 | 5 | 4 | 5 | 5 | 5 | 4 |
| CC1=C(Br)C(=O)N(c2cc(C(C)(C)C)[nH]n2)C1O (stereo not drawn) [Compound I1] | 5 | 4 | 5 | 5 | 5 | 5 | 5 | 4 | 5 | 5 | 4 | 3 |
| CC1=C(Br)C(=O)N(c2cc(C(C)(C)C)n(C)n2)C1O (stereo not drawn) [Compound J1] | 5 | 5 | 5 | 5 | 5 | 4 | 5 | 3 | 5 | 5 | 4 | 2 |
| CC1=C(Br)C(=O)N(c2cc(C(C)(C)C)n(C)n2)C1O (stereo not drawn) [Compound J2] | 5 | 5 | 5 | 5 | 5 | 4 | 5 | 3 | 5 | 5 | 4 | 2 |
| CC(C)=CCc1cc(N2C(=O)C(Br)=C(C)C2O)nn1C (stereo not drawn) [Compound J3] | 4 | 1 | 2 | 2 | 4 | 0 | 0 | 0 | 0 | 0 | 0 | 0 |
| CC1=C(Br)C(=O)N(c2cc(C(F)(F)F)n(C)n2)C1O (stereo not drawn) [Compound J4] | 5 | 5 | 5 | 5 | 5 | 5 | 5 | 4 | 5 | 4 | 5 | 4 |

— patent publication US9605004B2, “Chemical compounds” (SYNGENTA LIMITED, priority 2013, dated 2017)
